Test results as given in article PMC10298626 (International Journal of Molecular Sciences, 2023).
Marks after values point to notes of the source that are not given here.

Assays:
Format in all cases: cell-based, Mouse
iNOS mRNA = iNOS mRNA expression (qRT-PCR) in LPS-stimulated RAW264.7 cells; details: 20, 40, and 80 μM; 2 h pretreatment, LPS 500 ng/mL 6 h
Procedure: (§1) RAW264.7 cells were seeded into a 6-well plate (2 × 10^6 cells/well) and cultured for 24 h. The cells were treated with coumarin derivative 2 at 20, 40, and 80 μM and cultured for 2 h and with LPS (500 ng/mL) for 6 h.
(§2) The cells were washed with phosphate-buffered saline (PBS) and lysed with the RNeasy Mini kit (Qiagen, Hilden, Germany) for RNA isolation. RNA was converted to cDNA using the AccuPower reverse transcriptase Premix Kit (Bioneer, Daejeon, Republic of Korea). A Power SYBR Green PCR Master Mix (Applied Biosystems, Waltham, MN, USA) was used to perform polymerase chain reaction amplification. Amplification conditions were selected within the Quant 3 PCR system (Applied Biosystems). The data were normalized to the amount of glyceraldehyde 3-phosphate dehydrogenase.
Figure 4 Effect of coumarin derivative 2 on iNOS protein expression in LPS-stimulated RAW264.7 cells. (a) RAW264.7 cells (2.0 × 10^6 cells/6 cm dish) were pretreated with coumarin derivative 2 (20, 40, and 80 μM) for 2 h and incubated with LPS (500 ng/mL) for 20 h. Whole-cell lysates were then immunoblotted with the iNOS specific antibody. […] (c) RAW264.7 cells (2.0 × 10^6 cells/6 cm dish) were pretreated with coumarin derivative 2 (20, 40, and 80 μM) for 2 h and incubated with LPS (500 ng/mL) for 6 h. iNOS mRNA expression levels were measured via a real-time quantitative reverse transcription polymerase chain reaction. […]

JNK = test: LPS-induced phosphorylation of JNK (immunoblotting) in RAW264.7 cells; details: 20, 40, and 80 μM pretreatment 2 h; LPS 500 ng/mL 30 min
Procedure: (§3) RAW264.7 cells were seeded into 6-well plates (2 × 10^6 cells/well) and incubated for 24 h. The cells were incubated with 20, 40, and 80 μM of coumarin derivative 2 for 2 h, and then LPS (500 ng/mL) was added for 30 min (for phosphorylation of ERK, JNK, p38, and p65) and 24 h (for protein expression of iNOS).
(§4) The cells were washed with PBS and lysed with radioimmunoprecipitation assay buffer containing 1 mM dithiothreitol (Wako, Tokyo, Japan), phosphatase inhibitor cocktail, 1 mM phenylmethylsulfonylfluoride, 1 mM sodium orthovanadate (Sigma), and 10 mM β-glycerophosphate (Sigma). The extracted proteins were centrifuged at 13,000× g rpm, separated via sodium dodecyl sulfate polyacrylamide gel electrophoresis, and transferred to polyvinylidene fluoride membranes. Nonspecific proteins were blocked by adding 5% skim milk. After blocking, primary antibodies were incubated overnight at 4 °C. After washing with the PBS-T buffer, the secondary antibodies were treated at room temperature for 2 h. For detection, the antibodies were developed with Super Signal® West Femto Substrate (ThermoFisher, Waltham, MN, USA) and analyzed on a Fusion Solo Chemiluminescence System (Vilber Lourmat, Paris, France) ECL detection system.
(§5) Figure 5 Inhibitory effects of coumarin derivative 2 on LPS-induced phosphorylation of MAPKs and NF-κB p65 in RAW264.7 cells. […]

TNF-α mRNA = TNF-α mRNA expression (qRT-PCR) in LPS-stimulated RAW264.7 cells; details: 20, 40, and 80 μM; 2 h pretreatment, LPS 500 ng/mL 6 h
Procedure: as §1, §2
Figure 3 Effects of coumarin derivative 2 on IL-6 and TNF-α production and mRNA expression in LPS-stimulated RAW264.7 cells. (a) Effect of coumarin derivative 2 on TNF-α and IL-6 production in RAW264.7 cells. The RAW264.7 cells (1 × 10^5/well, 96-well plates) were pretreated with coumarin derivative 2 (20, 40, and 80 μM) for 2 h and incubated with LPS (500 ng/mL) for 20 h. An ELISA kit was used to analyze cell supernatants for TNF-α and IL-6. […] IL-6 and TNF-α mRNA expression levels were measured via a real-time quantitative reverse transcription polymerase chain reaction.

[1] = system: LPS-stimulated RAW264.7 cells; test: NO production (Griess reagent) in LPS-stimulated RAW264.7 cells
Procedure: A high concentration of NO promotes the synthesis of inflammatory mediators, leading to an inflammatory response, and has been reported to be a cause of various immune diseases. Therefore, this study was conducted to investigate the effect of coumarin derivatives on the production of NO induced by LPS stimulation in RAW264.7 cells. The cells were treated with coumarin derivatives at concentrations of 20, 40, and 80 μM for 2 h. Then, the cells were treated with LPS. After 20 h, the culture supernatant was recovered, and the amount of NO was measured. […] The anti-inflammatory activity of these derivatives depended on the position of the substituted group rather than the electron density of the substituted group.
The Griess reagent was used to measure NO production. RAW264.7 cells were seeded into a 96-well plate and cultured for 24 h. The cells were treated with 20, 40, and 80 μM of coumarin derivatives, cultured for 2 h, and then cultured with LPS (500 ng/mL) for 20 h. The same amount of cell supernatant and Griess reagent were used for the reaction, and absorbance was measured at 540 nm.

NF-κB p65 = test: LPS-induced phosphorylation of NF-κB p65 (immunoblotting) in RAW264.7 cells; details: 20, 40, and 80 μM pretreatment 2 h; LPS 500 ng/mL 30 min
Procedure: as §3, §4, §5

iNOS = iNOS protein expression (immunoblotting) in LPS-stimulated RAW264.7 cells; details: 20, 40, and 80 μM pretreatment 2 h; LPS 500 ng/mL 24 h
Procedure: as §3
as §4, with “Nonspecific proteins were blocked by adding 5% skim milk. After blocking, primary antibodies were incubated overnight at 4 °C. After washing with the PBS-T buffer, the secondary antibodies were treated at room temperature for 2 h.” left out
Figure 4 Effect of coumarin derivative 2 on iNOS protein expression in LPS-stimulated RAW264.7 cells. […] (c) RAW264.7 cells (2.0 × 10^6 cells/6 cm dish) were pretreated with coumarin derivative 2 (20, 40, and 80 μM) for 2 h and incubated with LPS (500 ng/mL) for 6 h. iNOS mRNA expression levels were measured via a real-time quantitative reverse transcription polymerase chain reaction. […]

In the case of `N#CC1=C(N)Oc2c(c(=O)oc3ccccc23)C1c1cccc(F)c1` (stereo not shown) [Coumarin derivative 2], the “iNOS mRNA expression” value (iNOS mRNA) is reported as “significantly suppressed”, the “Phosphorylation of JNK” value (JNK) is reported as “inhibited” and the “TNF-α mRNA expression” value (TNF-α mRNA) is reported as “significantly suppressed”. For the same compound, the “NO production, Average” value ([1]; 20 μM for 2 h, then LPS (500 ng/mL) 20 h, LPS alone 25.9, control 3.1) was 22.53 µM, the “NO production, Average (μM)” value ([1]; 40 μM for 2 h, then LPS (500 ng/mL) 20 h, LPS alone 25.9, control 3.1) was 15.24 *** μM and the “NO production, Average (μM)” value ([1]; 80 μM for 2 h, then LPS (500 ng/mL) 20 h, LPS alone 25.9, control 3.1) was 10.17 *** μM. For the same compound, the “Anti-inflammatory effect (inhibition of NO secretion), in words” value ([1]; 20, 40, and 80 μM, compared with LPS-only treatment) was “inhibited NO secretion in a concentration-dependent manner”, the IC50 ([1]; Mus musculus, RAW264.7, read-out: IC50 of NO production inhibition) was 33.4 µM and the p65 phosphorylation (NF-κB p65) was “inhibited”. For the same compound, the “iNOS expression (immunoblot)” value (iNOS) was “inhibited”.
